This is an account of results in ChEMBL document CHEMBL1667855, “Pyrrolidinone diterpenoid from Isodon excisus and inhibition of nitric oxide production in lipopolysaccharide-induced macrophage RAW264.7 cells” (Bioorg Med Chem Lett, 2011).

Where only a bound is given, the exact number is not on record here.

The subject of series [1] is RAW264.7. The experiment in a line: Cytotoxicity against mouse RAW264.7 cells assessed as cell viability by cell counting-based calorimetric assay.
In series [2] the test system is RAW264.7. Nature of the series: Inhibition of LPS-induced NO production in mouse RAW264.7 cells assessed as nitrite formation after 24 hrs. Conditions: RAW264.7, 24 h. Format: functional, cell-based.

Regarding `C[C@H](O)/C=C/[C@@]12O[C@]1(C)C[C@@H](O)CC2(C)C` [CORCHOIONOL A], in the series with RAW264.7 [1], the Activity result is on record as “Non-toxic”. Also, in the series on RAW264.7 [2], the concentration for half-maximal inhibition (IC50) was > 40 µM.
In the case of `CC[C@H](O)/C=C/C=C/C=C/C(=O)CCCCCCCC(=O)O` [CORCHORIFATTY ACID B], the Activity result with RAW264.7 [1] was “Non-toxic”. Moreover, the 50% inhibitory concentration (IC50) with RAW264.7 [2] was > 40 µM.
For `C=C1C(=O)[C@@]23CC[C@@H]4[C@](C)(CO[C@@H]5CCC(=O)N5)[C@@H](OC(C)=O)CC[C@@]4(C)[C@@H]2[C@@H](O)C[C@@H]1C3` [EXCISUSIN F] the same measures were “Non-toxic” and 10.4 µM.
With `C=C1[C@@H]2C[C@H](O)[C@@H]3[C@@](C2)(C[C@H](O)[C@@H]2C(C)(C)[C@@H](OC(C)=O)C[C@H](O)[C@]23C)[C@@H]1OC(C)=O` [INFLEXARABDONIN D], in the series with RAW264.7 [1], the Activity result is on record as “Non-toxic”. The IC50 in the series with RAW264.7 [2] is > 40 µM.
For `C=C1C(=O)[C@@]23CC(=O)[C@@H]4C(C)(C)[C@@H](OC(C)=O)C[C@H](O)[C@@]4(C)[C@@H]2[C@@H](O)C[C@@H]1C3` [INFLEXARABDONIN E] the same measures were “Non-toxic” and 3.8 µM.
